Measured values published in article PMC8727733, “Improvement of glycine biosynthesis from one‐carbon compounds and ammonia catalyzed by the glycine cleavage system in vitro” (Engineering in Life Sciences, 2021).

Target: T1, glycine cleavage system (GCS), L protein with P, T and H proteins (Escherichia coli, UniProt P0A9P0)
T1 construct: gene lpdA; printed WP records may differ from the MG1655 alleles; with Glycine dehydrogenase (decarboxylating); Aminomethyltransferase; Glycine cleavage system H protein
T1 sequence (P0A9P0 2-474): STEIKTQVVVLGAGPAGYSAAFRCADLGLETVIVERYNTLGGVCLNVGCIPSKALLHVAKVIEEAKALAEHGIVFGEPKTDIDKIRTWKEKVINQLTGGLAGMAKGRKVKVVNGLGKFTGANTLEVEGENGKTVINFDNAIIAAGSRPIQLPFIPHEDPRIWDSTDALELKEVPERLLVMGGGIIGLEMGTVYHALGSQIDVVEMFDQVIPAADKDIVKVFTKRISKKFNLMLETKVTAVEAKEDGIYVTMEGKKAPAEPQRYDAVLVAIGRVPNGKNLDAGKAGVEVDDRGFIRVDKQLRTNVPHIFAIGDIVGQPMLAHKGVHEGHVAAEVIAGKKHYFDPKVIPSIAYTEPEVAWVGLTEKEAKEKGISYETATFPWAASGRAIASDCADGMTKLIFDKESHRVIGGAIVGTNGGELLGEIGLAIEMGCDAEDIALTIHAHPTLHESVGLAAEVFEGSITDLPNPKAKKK
T1 sequence (P0A6T9 2-129 partner): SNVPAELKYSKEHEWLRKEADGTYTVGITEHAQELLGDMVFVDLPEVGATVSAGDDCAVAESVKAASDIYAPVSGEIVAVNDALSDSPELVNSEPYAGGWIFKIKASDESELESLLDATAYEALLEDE
Test: glycine-dependent NADH formation, spectrophotometric, reconstituted GCS
Assay type: biochemical
Conditions: 5 mM NAD+, 50 mM glycine, 0.5 mM THF, 20 mM DTT, 25 uM PLP, 50 mM Tris-HCl pH 7.5, 37 C; overall glycine cleavage

NC(=O)c1ccc[n+]([C@@H]2O[C@H](COP(=O)(O)OP(=O)(O)OC[C@H]3O[C@@H](n4cnc5c(N)ncnc54)[C@H](O)[C@@H]3O)[C@@H](O)[C@H]2O)c1 [NAD+]
glycine-dependent NADH formation, spectrophotometric, reconstituted GCS: measuring glycine‐dependent NADH formation
